The record followed here is patent publication US4289765A, “4-Aminopyridines and medicaments containing the same” (Hoechst Aktiengesellschaft, priority 1979, dated 1981).

For orientation: ED50 means the midpoint of the dose-response relation. By LD50 is commonly meant the dose at which mortality reaches 50%.

The test system of data set [1] is experimental bronchial spasms caused by histamine. Nature of the data set: Bronchospasmolytic action, histamine-induced bronchial spasm (Konzett and Roessler). In kind it is in vivo, guinea pig. The following applies: Cavia porcellus, urethane-anaesthetized guinea pigs, dose reducing spasm to 50%, read-out: Bronchospasmolytic action (ED50) as compared with histamine. The procedure:
(§1) The test substances were administered in an aqueous solution either by the intravenous (i.v.) or the intraduodenal (i.d.) route. Water-insoluble compounds were applied i.d. in carboxymethyl cellulose suspensions.

For data set [2], the system named is experimental bronchial spasms caused by serotonin. Nature of the data set: Bronchospasmolytic action, serotonin-induced bronchial spasm (Konzett and Roessler). The settings on record: Cavia porcellus, urethane-anaesthetized guinea pigs, dose reducing spasm to 50%, read-out: Bronchospasmolytic action (ED50) as compared with serotonin. The class given is in vivo, guinea pig. The procedure: as §1

Data set [3] has as its system experimental bronchial spasms caused by acetyl choline. Nature of the data set: Bronchospasmolytic action, acetyl choline-induced bronchial spasm (Konzett and Roessler). In kind it is in vivo, guinea pig. The settings on record: Cavia porcellus, urethane-anaesthetized guinea pigs, dose reducing spasm to 50%, read-out: Bronchospasmolytic action (ED50) as compared with acetyl choline. The procedure: as §1

Data set [4] is described as follows: in vivo. The settings on record: mouse, ip. The method, then: The LD50 values or the LD50 ranges were determined according to common standards via the mortality occurring over 7 days with NMRI mice following a single intraperitoneal (i.p.) administration.

Counter-ions that a name gives are not always drawn. Like-named read-outs stand apart in the source and are kept apart here.

Turning to `Cc1cc(N2CCSCC2)c([N+](=O)[O-])c(C)n1` [Example 1, 4-(2,6-Dimethyl-3-nitro-4-pyridyl)-thiomorpholinohydrochloride], the ED50 was 1.05 mg/kg in data set [1] (iv); 2.6 mg/kg in data set [1] (i.d. (intraduodenal)); 1.32 mg/kg in data set [2] (iv); 2.52 mg/kg in data set [2] (i.d. (intraduodenal)); 1.47 mg/kg in data set [3] (iv); 4.13 mg/kg in data set [3] (i.d. (intraduodenal)). The LD50 at 168 h in data set [4] was determined as 160 mg/kg.

For `Cc1cc(N2CCOCC2)c([N+](=O)[O-])c(C)n1` [Example 9], the ED50 in data set [1] (iv) lay within 1 to 3 mg/kg; in data set [3] (iv), 3 to 10 mg/kg. In data set [4], this compound came in with an LD50 at 168 h of 300 to 1000 mg/kg.

Take `Cc1cc(N2CCSCC2)c(C#N)c(C)n1` [Example 13]: the ED50 in data set [1] (iv) is 1 to 3 mg/kg; in data set [1] (i.d. (intraduodenal)), 1 to 3 mg/kg; in data set [2] (iv), 3 mg/kg; in data set [3] (iv) it was 3 mg/kg; in data set [3] (i.d. (intraduodenal)), 3 to 10 mg/kg. The LD50 at 168 h in data set [4] lay within 150 to 300 mg/kg.

Regarding `CCCc1cc(N2CCSCC2)c([N+](=O)[O-])c(CCC)n1` [Example 14], the ED50 was 3 mg/kg in data set [1] (iv), 3 to 10 mg/kg in data set [2] (iv) and 1 to 3 mg/kg in data set [3] (iv). For the same compound, the LD50 at 168 h in data set [4] lay within 300 to 600 mg/kg.

Take `Cc1cc(N2CCSC(C)C2)c([N+](=O)[O-])c(C)n1` (centres unmarked) [Example 15]: the ED50 in data set [1] (iv) and in data set [3] (iv) was 3 to 10 mg/kg in each case. Also, in data set [4], the LD50 at 168 h lay within 150 to 300 mg/kg.

For `COC(CNc1cc(C)nc(C)c1[N+](=O)[O-])OC` [Example 17], the ED50 was > 10 mg/kg in data set [1] (iv) and 3 to 10 mg/kg in data set [3] (iv). In data set [4], this compound had an LD50 at 168 h of 400 to 800 mg/kg.

Regarding `Cc1cc(NCCCl)c([N+](=O)[O-])c(C)n1` [Example 18], the values for the ED50 in data set [1] (iv), in data set [2] (iv) and in data set [3] (iv) were 3 mg/kg, 1 to 3 mg/kg and 1 to 3 mg/kg, respectively. This compound yielded an LD50 at 168 h in data set [4] of 150 to 300 mg/kg.

Take `Cc1cc(NCc2ccc3c(c2)OCO3)c([N+](=O)[O-])c(C)n1` [Example 22]: the ED50 was 3 mg/kg in data set [1] (iv) and 3 to 10 mg/kg in data set [3] (iv).

Take `Cc1cc(NCc2ccc(S(N)(=O)=O)cc2)c([N+](=O)[O-])c(C)n1` [Example 23]: the values for the ED50 in data set [1] (iv) and in data set [3] (iv) were 3 to 10 mg/kg and 1 to 3 mg/kg, respectively. This compound also showed an LD50 at 168 h in data set [4] of 600 to 1200 mg/kg.

For the compound `COc1ccc(CNc2cc(C)nc(C)c2[N+](=O)[O-])cc1` [Example 24], the ED50 in data set [1] (iv) is 0.3 to 1 mg/kg; in data set [2] (iv), 1 to 3 mg/kg; in data set [3] (iv) it was 1 to 3 mg/kg. In data set [4], the LD50 at 168 h was > 600 mg/kg.

Turning to `Cc1cc(NCCF)c([N+](=O)[O-])c(C)n1` [Example 32], the ED50 is 1 mg/kg in data set [1] (iv), 1 to 3 mg/kg in data set [2] (iv) and 3 to 10 mg/kg in data set [3] (iv). This compound also returned an LD50 at 168 h in data set [4] of 150 to 300 mg/kg.

For `Cn1c(=O)c2[nH]cnc2n(C)c1=O` [theophylline-ethylene diamine, reference compound], the ED50 in data set [1] (iv) was 5.6 mg/kg; in data set [2] (iv), 7.3 mg/kg; in data set [3] (iv), 8.3 mg/kg; in data set [3] (i.d. (intraduodenal)), 10 to 20 mg/kg.
